Earlier results, collected in paper PMC6166790 (Nature, 2018).

Tested on: CLR/RAMP2 or CLR/RAMP3

receptor response selectivity: selective AM responses
Substance: adrenomedullin [AM]
